{"source": "patent US8691586B2", "about": "(priority 2006, dated 2014)", "key": {"[1]": {"biological_target": "αHL pore (Staphylococcus aureus, UniProt P09616)", "sequence (P09616 27-319 limits assumed)": "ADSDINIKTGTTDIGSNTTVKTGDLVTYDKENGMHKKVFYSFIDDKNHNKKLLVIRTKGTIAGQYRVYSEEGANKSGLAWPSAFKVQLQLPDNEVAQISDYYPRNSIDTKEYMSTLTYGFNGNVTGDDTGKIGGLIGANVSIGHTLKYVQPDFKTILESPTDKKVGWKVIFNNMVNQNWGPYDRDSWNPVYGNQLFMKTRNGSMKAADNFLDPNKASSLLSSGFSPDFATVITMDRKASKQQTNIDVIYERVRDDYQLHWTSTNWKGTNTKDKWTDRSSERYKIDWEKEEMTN", "type": "biochemical, staphylococcal"}, "[2]": {"biological_target": "wild-type (WT) staphylococcal α-hemolysin (αHL) heptamer (Staphylococcus aureus, UniProt P09616)", "sequence (P09616 27-319 limits assumed)": "as above", "type": "biochemical", "settings": "pH 7"}, "[3]": {"biological_target": "WT αHL (Staphylococcus aureus, UniProt P09616)", "sequence (P09616 27-319 limits assumed)": "as above", "type": "biochemical, staphylococcal", "settings": "pH 7"}}, "data": [{"substance": "γ-cyclodextrin [γCD]", "values": [{"measurement": "residence time (toff)", "setting": "[1]", "value": "421 ± 22", "unit": "ms"}, {"measurement": "residence time (toff) for γCD bound to the αHL pore", "setting": "[2]", "value": "495 ± 51", "unit": "ms"}, {"measurement": "ionic current blocked by transient binding to an αHL pore", "setting": "[3]", "value": "around 60%"}]}]}
